Laboratory results: ChEMBL document CHEMBL4725294, “Centrally Active Multitarget Anti-Alzheimer Agents Derived from the Antioxidant Lead CR-6” (J Med Chem, 2020)
The source made the active and inactive calls. The calls are words filed in the database; no cut-off is given here.

Legend:
[1] = Acute toxicity in C57BL6/J mouse assessed as piloerection at 15 mg/kg, ip measured after 5 mins; assay type: organism-based; details: in vivo
[2] = Half life in human liver microsomes at 5 uM by UPLC-MS/MS analysis; assay type: ADME, Microsome
[3] = Stability in human plasma assessed as parent compound remaining at 10 uM measured immediately by UPLC-MS/MS analysis; assay type: ADME, cell-free; details: read-out: Stabilty
[4] = Drug metabolism in human liver microsomes assessed as 6-chloro-1,2,3,4-tetrahydroacridin-9-amine formation at 5 uM measured up to 60 mins by UPLC-MS/MS analysis; assay type: ADME, Microsome; details: 1 h
[5] = Stability in rat plasma assessed as parent compound remaining at 10 uM measured after 180 mins by UPLC-MS/MS analysis; assay type: ADME, cell-free; details: read-out: Stabilty
[6] = Stability in rat plasma assessed as parent compound remaining at 10 uM measured after 360 mins by UPLC-MS/MS analysis; assay type: ADME, cell-free; details: read-out: Stabilty
[7] = Acute toxicity in C57BL6/J mouse assessed as tremor at 15 mg/kg, ip measured after 5 mins; assay type: organism-based; details: in vivo
[8] = Drug metabolism in mouse liver microsomes assessed as N-[8-[(6-chloro-1,2,3,4-tetrahydroacridin-9-yl)amino]octyl]-2-(8-methoxy-2-methyl-6,9-dioxo-1-oxaspiro[4.5]dec-7-en-2-yl)acetamide formation at 5 uM measured up to 60 mins by UPLC-MS/MS analysis; assay type: ADME, Microsome; details: 1 h
[9] = Intrinsic clearance in human liver microsomes assessed per mg protein at 5 uM by UPLC-MS/MS analysis; assay type: ADME, Microsome; details: read-out: CLH
Acetylcholinesterase = Acetylcholinesterase (Homo sapiens, UniProt P22303)
Chain of Acetylcholinesterase (P22303 whole entry): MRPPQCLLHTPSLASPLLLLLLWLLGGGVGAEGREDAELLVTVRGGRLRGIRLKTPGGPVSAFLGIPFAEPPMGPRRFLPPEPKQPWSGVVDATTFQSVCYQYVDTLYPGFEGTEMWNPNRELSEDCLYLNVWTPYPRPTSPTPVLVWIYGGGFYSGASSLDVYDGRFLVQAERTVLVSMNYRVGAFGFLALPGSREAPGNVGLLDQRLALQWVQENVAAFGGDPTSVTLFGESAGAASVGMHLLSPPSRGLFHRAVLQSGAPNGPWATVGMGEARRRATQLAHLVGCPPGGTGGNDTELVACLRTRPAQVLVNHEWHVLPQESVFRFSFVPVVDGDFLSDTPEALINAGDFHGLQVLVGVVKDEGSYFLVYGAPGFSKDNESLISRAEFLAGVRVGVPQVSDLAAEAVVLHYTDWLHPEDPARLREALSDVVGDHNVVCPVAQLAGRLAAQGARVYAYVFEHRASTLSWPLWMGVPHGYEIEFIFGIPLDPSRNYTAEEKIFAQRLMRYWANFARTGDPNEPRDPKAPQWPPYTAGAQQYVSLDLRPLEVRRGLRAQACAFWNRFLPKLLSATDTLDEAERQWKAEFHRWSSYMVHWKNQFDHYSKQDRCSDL
Description: Inhibition of recombinant human AChE expressed in HEK293 cells using acetylthiocholine iodide as substrate preincubated for 15 mins followed by substrate addition by Ellman's method

[10] = Stability in mouse liver microsomes assessed as parent compound remaining at 5 uM measured up to 60 mins by UPLC-MS/MS analysis; assay type: ADME, Microsome; details: read-out: Stabilty
Mus musculus [11] = assay: Antialzheimer activity in APP/PS1 double mutant-transgenic C57BL6/J mouse model assessed as increase in Adam10 expression at 10 mg/kg/day, ip for 4 weeks followed by compound washout and measured after 24 hrs by Western blot analysis; assay type: functional, organism-based
Mus musculus [12] = assay: Antialzheimer activity in APP/PS1 double mutant-transgenic C57BL6/J mouse model assessed as reduction in soluble amyloid beta 42 level in cortex at 10 mg/kg/day, ip for 4 weeks followed by compound washout and measured after 24 hrs by ELISA; assay type: functional, organism-based
Mus musculus [13] = assay: Antialzheimer activity in APP/PS1 double mutant-transgenic C57BL6/J mouse model assessed as reduction in amyloid beta burden in cortex at 10 mg/kg/day, ip for 4 weeks followed by compound washout and measured after 24 hrs by hematoxylin staining based microscopic analysis; assay type: functional, organism-based
[14] = Drug metabolism in mouse liver microsomes assessed as N-[8-[(6-chloro-1,2,3,4-tetrahydroacridin-9-yl)amino]octyl]-3-hydroxy-5-(4-methoxy-3,6-dioxo-cyclohexa-1,4-dien-1-yl)-3-methyl-pentanamide formation at 5 uM measured up to 60 mins by UPLC-MS/MS analysis; assay type: ADME, Microsome; details: 1 h
[15] = Drug metabolism in mouse liver microsomes assessed as 6-chloro-1,2,3,4-tetrahydroacridin-9-amine formation at 5 uM measured up to 60 mins by UPLC-MS/MS analysis; assay type: ADME, Microsome; details: 1 h
[16] = Stability in mouse plasma assessed as parent compound remaining at 10 uM measured after 360 mins by UPLC-MS/MS analysis; assay type: ADME, cell-free; details: read-out: Stabilty
[17] = Drug metabolism in rat liver microsomes assessed as N-[8-[(6-chloro-1,2,3,4-tetrahydroacridin-9-yl)amino]octyl]-3-hydroxy-5-(4-methoxy-3,6-dioxo-cyclohexa-1,4-dien-1-yl)-3-methyl-pentanamide formation at 5 uM measured up to 60 mins by UPLC-MS/MS analysis; assay type: ADME, Microsome; details: 1 h
Mus musculus [18] = assay: Antialzheimer activity in APP/PS1 double mutant-transgenic C57BL6/J mouse model assessed as reduction in Bace1 gene expression at 10 mg/kg/day, ip for 4 weeks followed by compound washout and measured after 24 hrs by qPCR analysis; assay type: functional, organism-based
Mus musculus [19] = assay: Antialzheimer activity in APP/PS1 double mutant-transgenic C57BL6/J mouse model assessed as reduction in soluble amyloid beta 40 level in cortex at 10 mg/kg/day, ip for 4 weeks followed by compound washout and measured after 24 hrs by ELISA; assay type: functional, organism-based
[20] = Acute toxicity in C57BL6/J mouse assessed as ptosis at 15 mg/kg, ip measured after 5 mins; assay type: organism-based; details: in vivo
[21] = Drug metabolism in human liver microsomes assessed as N-[8-[(6-chloro-1,2,3,4-tetrahydroacridin-9-yl)amino]octyl]-3-hydroxy-5-(4-methoxy-3,6-dioxo-cyclohexa-1,4-dien-1-yl)-3-methyl-pentanamide formation at 5 uM measured up to 60 mins by UPLC-MS/MS analysis; assay type: ADME, Microsome; details: 1 h
[22] = Intrinsic clearance in rat liver microsomes assessed per mg protein at 5 uM by UPLC-MS/MS analysis; assay type: ADME, Microsome; details: read-out: CLH
[23] = Drug metabolism in rat liver microsomes assessed as N-[8-[(6-chloro-1,2,3,4-tetrahydroacridin-9-yl)amino]octyl]-5-(2,5-dihydroxy-4-methoxy-phenyl)-3-hydroxy-3-methyl-pentanamide formation at 5 uM measured up to 60 mins by UPLC-MS/MS analysis; assay type: ADME, Microsome; details: 1 h
[24] = Stability in mouse plasma assessed as parent compound remaining at 10 uM measured immediately by UPLC-MS/MS analysis; assay type: ADME, cell-free; details: read-out: Stabilty
[25] = Stability in rat liver microsomes assessed as parent compound remaining at 5 uM measured up to 60 mins by UPLC-MS/MS analysis; assay type: ADME, Microsome; details: read-out: Stabilty
[26] = Acute toxicity in C57BL6/J mouse at 5 to 10 mg/kg, ip measured up to 24 hrs; assay type: organism-based; details: in vivo, dose 5-10 mg/kg
[27] = Drug metabolism in human liver microsomes assessed as N-[8-[(6-chloro-1,2,3,4-tetrahydroacridin-9-yl)amino]octyl]-2-(8-methoxy-2-methyl-6,9-dioxo-1-oxaspiro[4.5]dec-7-en-2-yl)acetamide formation at 5 uM measured up to 60 mins by UPLC-MS/MS analysis; assay type: ADME, Microsome; details: 1 h
[28] = Drug metabolism in mouse liver microsomes assessed as N-[8-[(6-chloro-1,2,3,4-tetrahydroacridin-9-yl)amino]octyl]-5-(2,5-dihydroxy-4-methoxy-phenyl)-3-hydroxy-3-methyl-pentanamide formation at 5 uM measured up to 60 mins by UPLC-MS/MS analysis; assay type: ADME, Microsome; details: 1 h
[29] = Half life in mouse liver microsomes at 5 uM by UPLC-MS/MS analysis; assay type: ADME, Microsome
[30] = Stability in human liver microsomes assessed as parent compound remaining at 5 uM measured up to 60 mins by UPLC-MS/MS analysis; assay type: ADME, Microsome; details: read-out: Stabilty
Mus musculus [31] = assay: Antialzheimer activity in APP/PS1 double mutant-transgenic C57BL6/J mouse model assessed as increase in Hmox1 gene expression at 10 mg/kg/day, ip for 4 weeks followed by compound washout and measured after 24 hrs by qPCR analysis; assay type: functional, organism-based
[32] = Acute toxicity in C57BL6/J mouse at 15 mg/kg, ip measured after 3 hrs; assay type: organism-based; details: in vivo
[33] = Stability in rat plasma assessed as parent compound remaining at 10 uM measured after 60 mins by UPLC-MS/MS analysis; assay type: ADME, cell-free; details: read-out: Stabilty

SMILES: COc1cc2c(cc1O)CCC(C)(CC(=O)NCCCCCCCCNc1c3c(nc4cc(Cl)ccc14)CCCC3)O2 (centres undefined)
- Activity [1]: Toxic
- half-life at 5 µM [2]: 12.6 min
- remaining at 0 min, 10 µM [3]: 100%
- Drug metabolism [4]: Metabolite_Detected
- remaining at 3 h, 10 µM [5]: 100%
- remaining at 6 h, 10 µM [6]: 98%
- Activity [7]: Toxic
- Drug metabolism [8]: Metabolite_Detected
- microsomal CLint at 5 µM [9]: 55.2 µL/min/mg
- IC50 (Acetylcholinesterase): 3.69 nM
- remaining at 1 h, 5 µM [10]: 55.2%
- Activity (Mus musculus [11]): inactive
- Activity (Mus musculus [12]): inactive
- Activity (Mus musculus [13]): inactive
- Drug metabolism [14]: Metabolite_Detected
- Drug metabolism [15]: Metabolite_Detected
- remaining at 6 h, 10 µM [16]: 100%
- Drug metabolism [17]: Metabolite_Detected
- Activity (Mus musculus [18]): Active
- Activity (Mus musculus [19]): inactive
- Activity [20]: Toxic
- Drug metabolism [21]: Metabolite_Detected
- microsomal CLint at 5 µM [22]: 16.3 µL/min/mg
- Drug metabolism [23]: Metabolite_Detected
- remaining at 0 min, 10 µM [24]: 100%
- remaining at 1 h, 5 µM [25]: 36.5%
- Activity [26]: Non-Toxic
- Drug metabolism [27]: Metabolite_Detected
- Drug metabolism [28]: Metabolite_Detected
- half-life at 5 µM [29]: 50.5 min
- remaining at 1 h, 5 µM [30]: 3.6%
- Activity (Mus musculus [31]): Active
- Activity [32]: Non-Toxic
- remaining at 1 h, 10 µM [33]: 100%
